According to ChEMBL document CHEMBL4819018, “Variously substituted 2-oxopyridine derivatives: Extending the structure-activity relationships for allosteric modulation of the cannabinoid CB2 receptor” (Eur J Med Chem, 2021):
One block for each compound: values may come before it. Active and inactive are the calls of the source. The calls are words filed in the database; no cut-off is given here.

Key:
[1] = molecular target: T1, Cannabinoid receptor 2 (Homo sapiens, UniProt P34972); assay: Positive allosteric modulator activity at human CB2R expressed in CHO-K1 cell membrane assessed as increase in [3H]CP55940 binding at 100 nM measured after 60 mins by liquid scintillation spectrometry; type: cell membranes
[2] = molecular target: T1, Cannabinoid receptor 2; assay: Inverse agonist activity at human CB2R expressed in CHO-K1 cell membrane assessed as decrease in [35S]GTPgammaS binding at 1 to 10 uM measured after 90 mins by liquid scintillation counting analysis; type: cell membranes; conditions: cho-k1, 1.5 h, dose 1-10 µM
[3] = molecular target: T1, Cannabinoid receptor 2; assay: Positive allosteric modulator activity at human CB2R expressed in CHO-K1 cell membrane assessed as increase in [3H]CP55940 binding at 10 uM measured after 60 mins by liquid scintillation spectrometry; type: cell membranes
[4] = molecular target: T1, Cannabinoid receptor 2; assay: Positive allosteric modulator activity at human CB2R expressed in CHO-K1 cell membrane assessed as CP55940 Emax for [35S]GTPgammaS binding at 100 nM measured after 90 mins by liquid scintillation counting analysis (reference value: 57 +/-1.5%); type: functional, cell membranes; conditions: filed as positive allosteric modulator
[5] = molecular target: T1, Cannabinoid receptor 2; assay: Positive allosteric modulator activity at human CB2R expressed in CHO-K1 cells assessed as potentiation of CP55940-stimulated beta-arrestin2 recruitment measured after 90 mins by PathHunter assay relative to control; type: cell-based; conditions: filed as positive allosteric modulator
[6] = molecular target: T1, Cannabinoid receptor 2; assay: Positive allosteric modulator activity at human CB2R expressed in CHO-K1 cell membrane assessed as CP55940 Emax for [35S]GTPgammaS binding at 1 nM measured after 90 mins by liquid scintillation counting analysis (reference value: 57 +/-1.5%); type: functional, cell membranes; conditions: filed as positive allosteric modulator
[7] = molecular target: Cannabinoid receptor 1 (Homo sapiens, UniProt P21554); assay: Modulation of human CB1R expressed in CHO-K1 cell membrane assessed as effect on [3H]CP55940 binding at 0.001 to 10 uM measured after 60 mins by liquid scintillation spectrometry; type: cell membranes; conditions: cho-k1, 1 h, dose 0.001-10 µM
[8] = molecular target: T1, Cannabinoid receptor 2; assay: Positive allosteric modulator activity at human CB2R expressed in CHO-K1 cells assessed as potentiation of CP55940-stimulated inhibition of forskolin-induced cAMP accumulation measured after 90 mins by HitHunter cAMP assay relative to control; type: functional, cell-based; conditions: filed as positive allosteric modulator
[9] = molecular target: T1, Cannabinoid receptor 2; assay: Positive allosteric modulator activity at human CB2R expressed in CHO-K1 cells assessed as potentiation of CP55940-stimulated beta-arrestin2 recruitment measured after 90 mins by PathHunter assay; type: cell-based
[10] = molecular target: T1, Cannabinoid receptor 2; assay: Positive allosteric modulator activity at human CB2R expressed in CHO-K1 cells assessed as potentiation of CP55940-stimulated inhibition of forskolin-induced cAMP accumulation measured after 90 mins by HitHunter cAMP assay; type: functional, cell-based
[11] = molecular target: T1, Cannabinoid receptor 2; assay: Positive allosteric modulator activity at human CB2R expressed in CHO-K1 cell membrane assessed as increase in [3H]CP55940 binding at 0.001 to 1 microM measured after 60 mins by liquid scintillation spectrometry; type: cell membranes; conditions: dose 0.001-1 µM
[12] = molecular target: T1, Cannabinoid receptor 2; assay: Inhibition of [35S]GTPgammaS binding at human CB2R expressed in CHO-K1 cell membrane at 0.001 to 10 uM measured after 90 mins by liquid scintillation counting analysis; type: cell membranes; conditions: cho-k1, 1.5 h, dose 0.001-10 µM
[13] = molecular target: T1, Cannabinoid receptor 2; assay: Stimulation of [35S]GTPgammaS binding at human CB2R expressed in CHO-K1 cell membrane at 0.001 to 10 uM measured after 90 mins by liquid scintillation counting analysis; type: cell membranes; conditions: cho-k1, 1.5 h, dose 0.001-10 µM
[14] = filed as positive allosteric modulator

T1 sequence (P34972 whole entry): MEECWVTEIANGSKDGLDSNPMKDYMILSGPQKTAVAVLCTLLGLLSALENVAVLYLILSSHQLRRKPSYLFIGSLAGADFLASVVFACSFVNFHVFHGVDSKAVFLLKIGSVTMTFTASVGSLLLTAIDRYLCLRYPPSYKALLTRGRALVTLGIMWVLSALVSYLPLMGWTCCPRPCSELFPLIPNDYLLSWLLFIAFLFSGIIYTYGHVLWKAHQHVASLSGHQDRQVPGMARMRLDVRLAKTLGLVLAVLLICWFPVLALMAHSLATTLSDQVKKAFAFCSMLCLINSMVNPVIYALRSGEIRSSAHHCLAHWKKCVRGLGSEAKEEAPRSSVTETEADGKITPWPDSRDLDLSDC
Sequence of Cannabinoid receptor 1 (P21554 whole entry): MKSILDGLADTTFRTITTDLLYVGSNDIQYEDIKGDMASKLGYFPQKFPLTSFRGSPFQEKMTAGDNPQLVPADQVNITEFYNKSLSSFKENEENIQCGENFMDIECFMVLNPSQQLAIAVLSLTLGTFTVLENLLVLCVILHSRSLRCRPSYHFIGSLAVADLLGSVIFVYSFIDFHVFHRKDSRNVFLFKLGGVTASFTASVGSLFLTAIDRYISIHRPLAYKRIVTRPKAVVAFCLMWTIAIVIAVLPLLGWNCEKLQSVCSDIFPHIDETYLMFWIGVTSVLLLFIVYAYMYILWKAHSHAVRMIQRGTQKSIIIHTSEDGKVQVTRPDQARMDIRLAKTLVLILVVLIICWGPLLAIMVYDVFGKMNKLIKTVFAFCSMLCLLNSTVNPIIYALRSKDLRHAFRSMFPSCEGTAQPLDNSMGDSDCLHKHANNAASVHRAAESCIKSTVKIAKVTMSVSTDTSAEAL

Activity [1]: inactive
Compound: Cc1c(Br)cn(Cc2ccc(F)cc2)c(=O)c1NC(=O)C1CCC(C)CC1 (centres undefined)

Activity [1]: inactive
Compound: Cc1c(Br)cn(Cc2ccc(I)cc2)c(=O)c1NC(=O)C1CCCCCC1

Activity [1]: inactive
Compound: CC(=O)Nc1c(C)c(Br)cn(Cc2ccc(F)cc2)c1=O

Activity [1]: inactive
Compound: CCCCCn1cc(Br)c(C)c(NC(=O)C2CCCCCC2)c1=O

Activity [1]: inactive
Compound: Cc1c(Br)cn(CCN2CCOCC2)c(=O)c1NC(=O)C1CCCCCC1

Activity [2]: Active
Activity [3]: inactive
Emax [4]: 72%
Emax [5]: 51%
Emax [6]: 51%
Activity [7]: Not Active
Emax [8]: 120%
EC50 [9]: > 10 µM
EC50 [10]: > 10 µM
Activity [11]: 20%
Activity [1, 14]: Active
Compound: Cc1c(Br)cn(Cc2ccccc2F)c(=O)c1NC(=O)C1CCCCCC1

Activity [1]: inactive
Compound: Cc1c(Br)cn(Cc2ccc(F)cc2)c(=O)c1NC(=O)NC1CCCCCC1

Activity [1]: inactive
Compound: Cc1c(Br)cn(Cc2ccc(F)cc2)c(=O)c1[N+](=O)[O-]

Activity [1]: inactive
Compound: Cc1c(Br)cn(Cc2ccccc2)c(=O)c1NC(=O)C1CCCCCC1

Activity [1]: inactive
Compound: Cc1c(Br)cn(Cc2ccc(F)cc2)c(=O)c1NC(=O)c1ccccc1

Activity [1]: inactive
Compound: Cc1c(Br)cn(Cc2ccc(F)cc2)c(=O)c1NC(=O)OC1CCCCCC1

Activity [3]: inactive
Emax [4]: 67%
Emax [5]: 75%
inhibition (INH) [12]: Not Active
Emax [6]: 73%
Activity [7]: Not Active
Activity [13]: Not Active
Emax [8]: 101%
EC50 [9]: 0.15 µM
EC50 [10]: 0.015 µM
Activity [11, 14]: 40%
Activity [1, 14]: Active
Compound: Cc1c(Br)cn(Cc2ccccc2Cl)c(=O)c1NC(=O)C1CCCCCC1

Activity [1]: inactive
Compound: CCCCCC(=O)Nc1c(C)c(Br)cn(Cc2ccc(F)cc2)c1=O

Activity [1]: inactive
Compound: Cc1c(Br)cn(Cc2ccc(Cl)cc2)c(=O)c1NC(=O)C1CCCCCC1

Activity [1]: inactive
Compound: Cc1c(Br)cn(CCCCCO)c(=O)c1NC(=O)C1CCCCCC1

Activity [3]: inactive
Activity [1, 14]: Active
Compound: Cc1c(Br)cn(Cc2ccc(Br)cc2)c(=O)c1NC(=O)C1CCCCCC1

Compound: Cc1c(Br)cn(Cc2ccc(F)cc2)c(=O)c1NC(=O)C1CCCCCC1
Emax [5]: 79%
Emax [8]: 91%
EC50 [9]: 0.017 µM
EC50 [10]: 0.0038 µM

Activity [1]: inactive
Compound: Cc1c(Br)cn(Cc2cccc(F)c2)c(=O)c1NC(=O)C1CCCCCC1

Activity [1]: inactive
Compound: Cc1c(Br)cn(Cc2ccc(F)cc2)c(=O)c1N
